Results taken from patent US20150217046A1, “DOSING REGIMENS FOR SUBCUTANEOUSLY INFUSIBLE ACIDIC COMPOSITIONS” (SynAgile Corporation, priority 2012, published 2015).
Read-outs that look alike come from different tables or passages of the source.

How the values were obtained:
[1] = Infusion site reactions, intermittent subcutaneous infusion of 200 mg/mL LDEE pH 4.5 (Example 2); format: in vivo, minipigs
Text: Each infusion site was spaced a minimum of 2.5 inches (6.3 cm) apart from any other infusion site.
In all cases, the infusion site reaction constituted a swelling of 0.5-4.0 cm diameter, typically 0.5-1.5 cm.

[2] = Infusion site reactions, continuous subcutaneous infusion of 100 mg/mL LDEE pH 3.7 (Example 5); format: in vivo, minipigs; settings: for Fraction of sites with a reaction (firmness): pH 3.7, 100 mg/mL (0.44M) LDEE, continuous s.c. 8 h, 280 mg per site, N = 15 infusions
Experimental: The 5.6 mL volume was divided between two simultaneously infused sites, each site receiving 2.8 mL, i.e., 280 mg LDEE. At each site the flow rate was 0.35 mL/hour, i.e. 35 mg LDEE/hour was infused. The number of sites infused on the first day totaled in the four minipigs 8, and was 7 on the 8th day, because of dislodgement of a cannula from one site. The total number of infused sites was 15.

[3] = Skin symptoms and behavior after subcutaneous LDEE infusion (Example 7); format: in vivo, minipigs
[4] = minipig A day 1: 90 mg LDEE (100 mg/mL, pH 3.7) s.c. continuous over 8 h, oral Lodosyn
[5] = minipig A day 8: 90 mg LDEE (100 mg/mL, pH 3.7) re-infused at contralateral site over 8 h, pre-infused with 15 units human hyaluronidase
[6] = minipig B day 1: 90 mg LDEE (100 mg/mL, pH 3.7) s.c. continuous over 8 h, oral Lodosyn
[7] = minipig C day 1: 560 mg LDEE (100 mg/mL, pH 3.7) split between 2 sites, s.c. continuous over 8 h, oral Lodosyn
[8] = minipig C day 8: 280 mg LDEE (100 mg/mL, pH 3.7) re-infused at one site, s.c. continuous over 8 h
[9] = minipig D day 1: 560 mg LDEE (100 mg/mL, pH 3.7) split between 2 sites, s.c. continuous over 8 h, oral Lodosyn
[10] = minipig D day 8: 560 mg LDEE (100 mg/mL, pH 3.7) re-infused at the 2 day 1 sites, s.c. continuous over 8 h
[11] = minipig E day 1: 560 mg LDEE (100 mg/mL, pH 3.7) split between 2 sites, s.c. continuous over 8 h, pre-infused with 15 units human hyaluronidase
[12] = minipig F day 1: 560 mg LDEE (100 mg/mL, pH 3.7) split between 2 sites, s.c. continuous over 8 h, pre-infused with 15 units human hyaluronidase
[13] = minipig F day 8: 560 mg LDEE (100 mg/mL, pH 3.7) re-infused at 2 sites over 8 h, pre-infused with 15 units human hyaluronidase

## CCOC(=O)[C@@H](N)Cc1ccc(O)c(O)c1 [LDEE, levodopa ethyl ester]
[1]; 200 mg/mL (0.89 M) LDEE pH 4.5, 140 mg, intermittent s.c., typically 0.5-1.5 cm
  diameter of swelling (infusion site reaction): 0.5-4.0 cm
[1]; 200 mg/mL (0.89M) LDEE pH 4.5, 140 mg, 14 days post-infusion
  rate of small granuloma formation: 33%
[1]; 200 mg/mL (0.89 M) LDEE pH 4.5, 14-15 days post-infusion
  infusion site reactions: 8 out of 24
[2]; 100 mg/mL (0.44 M) LDEE pH 3.7, continuous s.c. 8 h, 0.35 mL/hour per site
  diameter of reactions (slightly raised and firm): about 1 cm
[2]; 100 mg/mL (0.44 M) LDEE pH 3.7, dose divided between two continuously infused sites
  fraction of sites with reactions: 1/15
[2]; 0 hrs after end of infusion
  Fraction of sites with a reaction (firmness): 0.067
[2]; 12 hrs after end of infusion
  Fraction of sites with a reaction (firmness): 0.067
[2]; 24 hrs after end of infusion
  Fraction of sites with a reaction (firmness): 0.067
[2]; 3 days after end of infusion
  Fraction of sites with a reaction (firmness): 0.067
[2]; 7 days after end of infusion
  Fraction of sites with a reaction (firmness): 0.067
[2]; 14 days after end of infusion
  Fraction of sites with a reaction (firmness): 0
[3]; LDEE dose rate raising plasma LD above 10,000 ng/mL, even above 15,000 ng/mL
  behavior of the minipigs: did not result in a readily observable change in the behavior of the minipigs
[3]; minipig D only, 7 days after first infusion and again after end of 8th day reinfusion, 560 mg LDEE 100 mg/mL pH 3.7
  diameter of slightly raised swelling at infused site: about 1 cm
Average of the 10 minipig/day infusions of Table 10
  Plasma LD, 480 minutes after start of infusion: 7,870 ng/mL
Minipig A day 1: 90 mg LDEE (100 mg/mL, pH 3.7) s.c. continuous over 8 h
  Plasma LD, 480 minutes after start of infusion: 1,051 ng/mL
[4]
  40 minutes Post-Infusion plasma LD: 1,093 ng/mL
  End of Infusion Plasma LD: 1,051 ng/mL
[5]
  40 minutes Post-Infusion plasma LD: 691 ng/mL
  100 minutes Post-Infusion plasma LD: 342 ng/mL
  170 minutes Post-Infusion plasma LD: 185 ng/mL
  End of Infusion Plasma LD: 679 ng/mL
Minipig A day 8: 90 mg LDEE (100 mg/mL, pH 3.7), contralateral site, 8 h, hyaluronidase pre-infusion
  Plasma LD, 480 minutes after start of infusion: 679 ng/mL
Minipig B day 1: 90 mg LDEE (100 mg/mL, pH 3.7) s.c. continuous over 8 h
  Plasma LD, 480 minutes after start of infusion: 1,351 ng/mL
[6]
  40 minutes Post-Infusion plasma LD: 1,010 ng/mL
  100 minutes Post-Infusion plasma LD: 686 ng/mL
  170 minutes Post-Infusion plasma LD: 376 ng/mL
  End of Infusion Plasma LD: 1,351 ng/mL
Minipig C day 1: 560 mg LDEE (100 mg/mL, pH 3.7) split between 2 sites, s.c. continuous over 8 h
  Plasma LD, 480 minutes after start of infusion: 11,377 ng/mL
[7]
  40 minutes Post-Infusion plasma LD: 11,006 ng/mL
  100 minutes Post-Infusion plasma LD: 6,010 ng/mL
  170 minutes Post-Infusion plasma LD: 5,754 ng/mL
  End of Infusion Plasma LD: 11,377 ng/mL
Minipig C day 8: 280 mg LDEE (100 mg/mL, pH 3.7) at one site, 8 h
  Plasma LD, 480 minutes after start of infusion: 4739 ng/mL
[8]
  40 minutes Post-Infusion plasma LD: 4551 ng/mL
  100 minutes Post-Infusion plasma LD: 3357 ng/mL
  170 minutes Post-Infusion plasma LD: 2306 ng/mL
  End of Infusion Plasma LD: 4739 ng/mL
Minipig D day 1: 560 mg LDEE (100 mg/mL, pH 3.7) split between 2 sites, s.c. continuous over 8 h
  Plasma LD, 480 minutes after start of infusion: 15,356 ng/mL
[9]
  40 minutes Post-Infusion plasma LD: 17,055 ng/mL
  100 minutes Post-Infusion plasma LD: 9,790 ng/mL
  170 minutes Post-Infusion plasma LD: 6,942 ng/mL
  End of Infusion Plasma LD: 15,356 ng/mL
Minipig D day 8: 560 mg LDEE (100 mg/mL, pH 3.7) re-infused at the 2 day 1 sites, 8 h
  Plasma LD, 480 minutes after start of infusion: 8075 ng/mL
[10]
  40 minutes Post-Infusion plasma LD: 8350 ng/mL
  100 minutes Post-Infusion plasma LD: 5928 ng/mL
  170 minutes Post-Infusion plasma LD: 4219 ng/mL
  End of Infusion Plasma LD: 8075 ng/mL
Minipig D, Day 1 infusion
  increase in plasma LD concentration 40 minutes after cessation of infusion: 1,699 ng/mL
[11]
  40 minutes Post-Infusion plasma LD: 11,918 ng/mL
  100 minutes Post-Infusion plasma LD: 5,464 ng/mL
  170 minutes Post-Infusion plasma LD: 7,329 ng/mL
  End of Infusion Plasma LD: 14,212 ng/mL
Minipig E day 1: 560 mg LDEE (100 mg/mL, pH 3.7), 2 sites, 8 h, hyaluronidase pre-infusion
  Plasma LD, 480 minutes after start of infusion: 14,212 ng/mL
[12]
  40 minutes Post-Infusion plasma LD: 12,310 ng/mL
  100 minutes Post-Infusion plasma LD: 3,046 ng/mL
  170 minutes Post-Infusion plasma LD: 5,903 ng/mL
  End of Infusion Plasma LD: 12,982 ng/mL
Minipig F day 1: 560 mg LDEE (100 mg/mL, pH 3.7), 2 sites, 8 h, hyaluronidase pre-infusion
  Plasma LD, 480 minutes after start of infusion: 12,982 ng/mL
[13]
  40 minutes Post-Infusion plasma LD: 8223 ng/mL
  100 minutes Post-Infusion plasma LD: 6231 ng/mL
  170 minutes Post-Infusion plasma LD: 3650 ng/mL
  End of Infusion Plasma LD: 8880 ng/mL
Minipig F day 8: 560 mg LDEE (100 mg/mL, pH 3.7), 2 sites, 8 h, hyaluronidase pre-infusion
  Plasma LD, 480 minutes after start of infusion: 8880 ng/mL
